The source of these data is patent publication US20010012854A1, “MULTICATALYTIC PROTEASE INHIBITORS FOR USE AS ANTI-TUMOR AGENTS” (priority 1997, published 2001).

The target in test [1] is MCP chymotrypsin-like activity (Homo sapiens, UniProt P28074). The test is described as follows: Inhibition of MCP chymotrypsin-like activity. It is filed as biochemical. The source says:
(§1) The rank-order potency for Jurkat cell killing precisely matched the order for MCP inhibition (Table 2, below).
Inhibition of the chymotrypsin-like activity of MCP by the disclosed MCP inhibitors has been reported, but these MCP inhibitors produced relatively little inhibition on the MCP trypsin-like activity and cathepsin B, a vacuolar cysteine protease (Iqbal, M., et al. J. Med Chem. 38: 2276-2277, 1995; Iqbal, M., et al. Bioorg. Med. Chem. Lett. 6: 287-290, 1996; and Harding, C. V., et al. J. Immuno. 155: 1767-1775, 1995). Furthermore, the order of potency for inhibition of the chymotrypsin-like activity was reported to be Compound A>Compound B>Compound C by using both isolated MCP and intact murine B cells (Iqbal, M., et al. J. Med Chem. 38: 2276-2277, 1995; Iqbal, M., et al. Bioorg. Med. Chem. Lett. 6: 287-290, 1996; and Harding, C. V., et al. J. Immuno. 155: 1767-1775, 1995).

Test [2] relates to Jurkat Human T Cell Leukemia Line. The test is described as follows: Jurkat cell viability assay (XTT reduction). Type of test: cell-based. The conditions noted are these: Jurkat cells, 24 hours, viability by XTT reduction, read-out: Toxicity (IC50). As to the method:
f. Cell viability assay. Jurkat cells were treated with MCP inhibitors or vehicle for 30 min. at 37° C. Next, ionomycin (1 μM) and the phorbol ester PMA (10 ng/ml) were added, together with 0.2% ethanol. After 24 h, cell viability was assessed by reduction of XTT (Sigma, X4251). To each well, 50 μl of XTT (1 mg/ml) and 25 μl PMS (Sigma 9625, 5 mM) were added. After 3 h at 37° C., the OD of each well was read at 450 nm/690 nm by a plate reader.
as §1
(In general: Formazan colour is commonly taken as a measure of viable cells.)

In test [3] the test system is human leukemia HL-60 cells. The test is described as follows: Apoptosis in HL-60 cells (DNA fragmentation, PARP cleavage). It is filed as cell-based. The conditions noted are these: 30 μM, 3-4 h. As to the method: (§2) d. Flow cytometry nuclear staining and DNA fragmentation assays. DNA content analysis using flow cytometry was performed as described previously (Nicoletti, I., et al. J. Immunol. Methods 139:271-279, 1992). To assay nuclear morphology, cells were washed with PBS, fixed with 70% ethanol for 1 h, and stained with Hoechst 33258 (1 mM) for 30 min. The nuclear morphology of cells was visualized by fluorescence microscope (OLYMPUS BH2). DNA fragmentation was assayed as described previously (Grant, S., et al. Cancer Res. 52:6270-6278, 1992).
(§3) e. Whole cell extracts and western blot assay. To prepare whole cell extracts, cells were washed with PBS, and homogenized in lysis buffer (50 mM Tris, pH 8.0, 5 mM EDTA, 150 mM NaCl, 0.5% Nonidet P-40, 0.5 mM PMSF and 0.5 mM dithiothreitol). Following 30 min rocking at 4° C., the lysates were centrifuged and the supernatants were collected as whole cell extracts. The protein samples were then analyzed by sodium dodecyl sulfate-6% polyacrylamide gel electrophoresis (20-60 μg protein per lane) followed by the enhanced chemiluminescence Western blot assay using specific antibodies to CPP32, PARP, p21, p27 or RB.
Example 1 was designed to determine if MCP is involved in the survival signaling pathway(s) and if inhibition of MCP activity induces apoptosis. Human Jurkat T cells were treated with 30 μM Compound A for 4 h. […]

Test [4] deals with Human prostate cancer PC-3 cells. Briefly: Detachment and apoptotic nuclear changes in PC-3 cells. Type of test: cell-based. The conditions noted are these: PC-3, 10 μM, 36 h. As to the method: (§4) c. Treatment of cells with MCP inhibitor. Cells were treated with a specified MCP Inhibitor, a standard anticancer agent (etoposide or cisplatin), or DMSO (vehicle). During this process, morphological changes and cellular detachment (for attached cell lines) were monitored. At each time point, cells were harvested, and used for measurement of apoptosis and other biochemical events. In Example 1, infra, involving YVAD-CMK, Compound A was first added to Jurkat T cells. This was followed immediately by dividing the cells into multiple tissue culture flasks. YVAD-CMK was then added to an indicated concentration.
as §2
Human prostate cancer PC-3 cells were treated with 10 μM Compound A, etoposide, or an equal percentage of vehicle (DMSO), followed by separation of the attached and detached cell populations. Both attached and detached cell populations were then used for detection of apoptotic nuclear changes. After 36 h treatment with Compound A, ˜50% of PC-3 cells became detached.

Test [5] relates to human prostate cancer DU145 cells. The test is described as follows: Detachment and apoptotic nuclear changes in DU145 cells. Type of test: cell-based. The conditions noted are these: DU145, 16 h. As to the method: as §4, §2
Similar to PC-3, about half of human prostate cancer DU145 cells became detached after exposure to Compound A for 16 h.

The subject of test [6] is human breast cancer MDA-MB-231 cells. Briefly: Detachment and apoptotic nuclear changes in MDA-MB-231 cells. It is filed as cell-based. The conditions noted are these: MDA-MB-231, 24 h. On the procedure:
as §4, §2
Detachment was also found in at least half of human breast cancer MDA-MB-231 and MCF-7 cells, after exposure to Compound A for 24 h.

Test [7] concerns oral aquamous carcinoma cell line SCC-25. The test is described as follows: Detachment and apoptosis in SCC-25 cells. Type of test: cell-based, human. As to the method:
as §4, §2

The subject of test [8] is p21 and p27 in human breast cancer MDA-MB-231 cells. Briefly: Western blot of p21 and p27 levels in MDA-MB-231 cells. It is filed as cell-based. The conditions noted are these: MDA-MB-231, 15 μM, 6 hours. As to the method:
as §3
Additionally, a band of 70 kDa whih may represent ubiquinated p70 was also observed. In contrast, etoposide caused only limited accumulation of p21 (≦4-fold) and p27 (≦2-fold) at 17 hours when used at concentrations up to 100 μM.

Test [9] relates to p21 and p27 in normal WI-38 fibroblasts. Briefly: Western blot of p21 and p27 levels in normal WI-38 fibroblasts. Type of test: cell-based, human. The conditions noted are these: normal WI-38, 10 μM, 22 hours. On the procedure:
as §3
The accumulation of p21 and p27 following treatment with Compound A was also evaluated in SV-40 transformed and normal WI-38 fibroblasts.

The structures appear in SMILES notation.

The IC50 is the concentration needed to halve the response being measured.

Turning to `CC(C)C[C@@H](C=O)NC(=O)[C@@H](CCCNC(=N)N[N+](=O)[O-])NC(=O)C(CCCCCCCCN1C(=O)c2ccccc2C1=O)C1CCCC1` (stereo partly shown) [Compound A], the IC50 in test [1] worked out at 2 nM. The IC50 in [2] was 500 nM. Besides, the “Cleavage of PARP” value in [3] was “complete cleavage of PARP”. In addition, in test [4], the Detached cells was about 50%; the “Nuclear morphology (apoptotic condensation and fragmentation)” value is “All the detached PC-3 cells exhibited typical apoptotic nuclear condensation and fragmentation”. Besides, in test [5], the Detached cells result was “about half”; the Nuclear morphology entry is “Almost all the detached and even the attached DU145 cells exhibited apoptosis-specific nuclear morphology”. In [6], the “Apoptosis by nuclear staining” value is “apoptotic morphology in all of the detached and most of the attached cells”; the Detached cells entry was “at least half”. In addition, the “Induction of cellular detachment and apoptosis” value in test [7] is “induced cellular detachment and apoptosis”. Further, in [8], the “Increase in level of p21” value was 45 fold and the “Levels of p27” value is reported as “slightly increased”. Besides, the p27 levels result in [9] is recorded as “increased only slightly”.
